Source: patent publication US20090203792A1, “METHODS OF TREATING NON-PAINFUL BLADDER DISORDERS USING ALPHA2DELTA SUBUNIT CALCIUM CHANNEL MODULATORS” (priority 2002, published 2009)
Entries after “also recorded” stand apart in the source; their conditions may differ.

Columns and labels:
[1] = system: calcium currents of bladder afferent (DRG) neurons; assay: Bladder sensory neuron calcium current model (whole cell patch-clamp); type: cell-based, rat
From the text: Labeling of bladder afferent neurons: Adult female Sprague-Dawley rats (150-300 g) were deeply anesthetized with isoflurane. A ventral midline incision was made through the abdominal skin and musculature, exposing the urinary bladder. Five injections of the fluorescent dye Fast Blue (4%) were made into the bladder smooth muscle wall to label primary afferent fibers innervating the bladder. The area was rinsed with sterile saline to eliminate nonspecific spread of dye, and the incision was closed. Rats recovered for 12-14 days to allow for transport of Fast Blue from distal terminals to the cell somata of dorsal root ganglion (DRG) neurons. Labeled neurons were identified in vitro using fluorescence optics. […]
Neurons were incubated in culture medium containing the FITC-labeled lectin BSI-B4 (IB4, […]) at 37° C. for 5 min before recording. The coverslip was washed with extracellular recording solution for 1 min before being placed in a recording chamber mounted on the stage of an inverted microscope equipped with fluorescence optics. […]
Calcium currents were recorded from DRG neurons using standard electrophysiologic protocols. […] Currents were recorded using a patch-clamp amplifier and digitized at 3-10 kHz for acquisition. […] Baseline responses were recorded until a steady-state peak amplitude was obtained, and to ensure that the kinetics of the response were stable. […]

[2] = system: rat bladder irritated by intravesical dilute acetic acid; assay: Dilute acetic acid model of bladder overactivity, filling cystometry; type: in vivo; conditions: for bladder capacity normalized to pre-irritation saline control values (reversal of acetic acid-induced reduction) / bladder capacity during continuous intravesical dilute acetic acid infusion: rats; for bladder capacity normalized to pre-irritation saline control values (reversal of acetic acid-induced reduction): intravenous cumulative doses: gabapentin 30-300 mg/kg n=11, pregabalin 10-100 mg/kg n=7; for bladder capacity during continuous intravesical dilute acetic acid infusion: intravenous increasing doses (gabapentin 30-300 mg/kg, p=0.0031 by Friedman test; pregabalin 10-100 mg/kg)
From the text: Animal Preparation Female rats (250-275 g BW) were anesthetized with urethane (1.2 g/kg) and a saline-filled catheter (PE-50) was inserted into the jugular vein for intravenous drug administration. Via a midline lower abdominal incision, a flared-tipped PE 50 catheter was inserted into the bladder dome for bladder filling and pressure recording and secured by ligation. The abdominal cavity was moistened with saline and closed by covering with a thin plastic sheet in order to maintain access to the bladder for emptying purposes. Fine silver or stainless steel wire electrodes were inserted into the external urethral sphincter (EUS) percutaneously for electromyography (EMG).
Experimental Design: Saline was continuously infused at a rate of 0.055 ml/min via the bladder filling catheter for 60 minutes to obtain a baseline of lower urinary tract activity (continuous cystometry; CMG). Following the control period, a 0.25% acetic acid solution in saline was infused into the bladder at the same flow rate to induce bladder irritation. Following 30 minutes of AA infusion, 3 vehicle injections were made at 20 minute intervals to determine vehicle effects, if any. Increasing doses of a selected active agent, gabapentin (30, 100 and 300 mg/kg; n=11) or pregabalin (10, 30 and 100 mg/kg; n=7), at half log increments were administered intravenously at 30 minute intervals in order to construct a cumulative dose-response relationship. At the end of the control saline cystometry period, at the third vehicle, and 20 minutes following each subsequent treatment, the infusion pump was stopped, the bladder was emptied via the infusion catheter and a single filling cystometrogram was performed at the same flow rate in order to determine changes in bladder capacity caused by the irritation protocol and subsequent […] drug administration. Body temperature was maintained at 37 C with a heating pad.
Bladder capacity was estimated by single filling cystometry. Data were analyzed by non-parametric ANOVA for repeated measures (Friedman Test) for cumulative dose-response studies and Dunn's Multiple Comparison post-test. In some cases, comparisons were made from the last vehicle measurement (AA/Veh 3). P<0.050 was considered significant.

[3] = system: α2δ subunit of calcium channels; conditions: Bryans et al. (1999) Med. Res. Rev. 19: 149-177; cited from earlier work
[4] = system: rat bladder irritated by intravesical protamine sulfate/KCl; assay: Urothelial permeation/physiological potassium model (protamine sulfate/KCl bladder irritation), filling cystometry; type: in vivo
From the text: Female rats (250-275 g BW) are anesthetized with urethane (1.2 g/kg) and a saline-filled jugular catheter (PE-50) is inserted for intravenous drug administration. Via a midline abdominal incision, a PE 50 catheter is inserted into the bladder dome for bladder filling and pressure recording. The abdominal cavity is moistened with saline and closed by covering with a thin plastic sheet in order to maintain access to the bladder for filling cystometry emptying purposes. Fine silver or stainless steel wire electrodes are inserted into the external urethral sphincter (EUS) percutaneously for electromyography (EMG).
Saline and all subsequent infusates are continuously infused at a rate of 0.055 ml/min via the bladder filling catheter for 30-60 minutes to obtain a baseline of lower urinary tract activity (continuous cystometry; CMG). Bladder pressure traces act as direct measures of bladder and urethral outlet activity, and EUS-EMG phasic firing and voiding act as indirect measures of lower urinary tract activity during continuous transvesical cystometry. […] Once a stable level of lower urinary tract hyperactivity is established (20-30 minutes), vehicle followed by increasing doses of a selected active agent are administered intravenously in order to construct a cumulative dose-response relationship and their effects on LUT function are monitored for 20 minutes. […]

Row | Structure (SMILES) | block of currents recorded from bladder afferent neurons ([1]; 0.1 mM, data not shown) | bladder capacity normalized to pre-irritation saline control values (reversal of acetic acid-induced reduction) [2] [%] | bladder capacity during continuous intravesical dilute acetic acid infusion [2] | binding affinity for the α2δ subunit of calcium channels compared with gabapentin [3] | bladder capacity during continuous bladder irritation (protamine sulfate/KCl) ([4]; rats n=6, 30, 100 and 300 mg/kg intravenously, sequential at 30 minute intervals, p=0.0108 by Friedman test) | drug-induced changes in blood pressure ([4]; rats, intravenous, any dose examined) | bladder capacity response compared with last vehicle measurement (AA/Veh 3) ([2]; rats n=5, 300 mg/kg intravenous, p<0.05 by Dunn's multiple comparison test) | peak calcium current during drug application, relative to control ([1]; 30 μM bath application, six bladder afferent neurons, step from −80 mV to 0 mV, mean±SEM)
1 | [Cl][Cd][Cl] [CdCl2] | completely blocked |  |  |  |  |  |  | 
2 | CC(C)C[C@H](CN)CC(=O)O [Pregabalin, (S)-(3-aminomethyl)-5-methylhexanoic acid] |  | 42 | demonstrate efficacy | even higher binding affinity |  |  |  | 
3 | NCC1(CC(=O)O)CCCCC1 [gabapentin, 1-(aminomethyl)cyclohexaneacetic acid] |  | ~50 | partially reversing the reduction in bladder capacity caused by acetic acid in a dose-dependent fashion; also recorded: dose-dependent increase in bladder capacity; also recorded: demonstrate efficacy |  | reversed the irritation effect (decreased bladder capacity) in a dose-dependent fashion; also recorded: dose-dependent increase in bladder capacity | No drug-induced changes in blood pressure | significantly higher than AA/Veh 3 | 85+1%
